Source: patent US20120088662A1, “FUNGICIDAL MIXTURES” (BASF SE, priority 2009, published 2012)
Where two headings read alike, the source gives them in different places.

Key:
Phytophthora infestans [1] = type: cell-based; settings: single active compound
Botrytis cinerea [2] = assay: Use Example M2: activity against gray mold pathogen in the microtiter test (Botrci); type: cell-based; settings: single active compound
Pyricularia oryzae = type: cell-based; settings: alone
Septoria tritici [3] = assay: Use Example M4: activity against Septoria leaf spot pathogen in the microtiter test (Septtr); type: cell-based; settings: alone
Botrytis cinerea [4] = assay: Use Example G1: gray mold on bell pepper leaves, protective application (Botrci P1); type: in vivo; settings: 1 ppm, alone; untreated control 86 % infection
Experimental: (§1) The active compounds were prepared separately or jointly as a stock solution with 25 mg of active compound which was made up to 10 ml using a mixture of acetone and/or DMSO and the emulsifier Wettol EM 31 (wetting agent having emulsifying and dispersing action based on ethoxylated alkylphenols) in a volume ratio of solvent:emulsifier of 99:1. The mixture was then made up with water to 100 ml. This stock solution was diluted with the solvent/emulsifier/water mixture described to give the active compound concentration stated below. Alternatively, the active compounds were used as a commercial finished formulation and diluted with water to the stated active compound concentration.
(§2) The visually determined values for the percentage of infected leaf area were initially converted into a mean value and then converted into efficancies in % of the untreated control. An efficacy of 0 means the same degree of infection as in the untreated control, an efficacy of 100 means 0% infection.
Bell pepper seedlings were after 2-3 leaves were well developed, sprayed to runoff point with an aqueous suspension having the active compound concentration stated below. The next day, the treated plants were inoculated with a spore suspension of Botrytis cinerea in a 2% biomalt solution. […] After 5 days, the extent of the fungal infection on the leaves could be determined visually in %.

Phakopsora pachyrhizi [5] = assay: Use Example G3: curative activity against soybean rust (Phakpa K4); type: in vivo; settings: alone, untreated control 76 % infection
Experimental: as §1, §2
Leaves of potted soybean seedlings were inoculated with a spore suspension of soybean rust (Phakpsora pachyrhizi). The pots were then placed in a chamber of high atmospheric humidity (90 to 95%) and 20 to 24° C. for 24 hours. During this time, the spores germinated and the germ tubes penetrated into the leaf tissue. The infected plants were then cultivated further in a greenhouse at temperatures between 23 and 27° C. and 60 to 80% relative atmospheric humidity. After three days, the plants were sprayed to runoff point with the active compound solution described above at the active compound concentration stated below. After the spray coating had dried on, the test plants were cultivated in a greenhouse at temperatures between 23 and 27° C. and 60 to 80% relative atmospheric humidity for a further 10 days. The extent of the rust fungus development on the leaves was then determined visually in % infection.

Puccinia recondita = assay: Use Example G4: protective activity against brown rust of wheat (Puccrt P1); type: in vivo; settings: alone, untreated control 79 % infection
Experimental: as §1, §2
Leaves of potted wheat seedlings were sprayed to runoff point with an aqueous suspension having the active compound concentration stated below. The next day, the treated plants were inoculated with a spore suspension of brown rust of wheat (Puccinia recondita). The plants were then placed in a chamber of high atmospheric humidity (90 to 95%) at 20 to 24° C. for 24 hours. During this time, the spores germinated and the germ tubes penetrated into the leaf tissue. The next day, the test plants were returned to the greenhouse and cultivated at temperatures between 20 and 24° C. and 65 to 70% relative atmospheric humidity for a further 7 days. The extent of the rust fungus development on the leaves was then determined visually.

Septoria tritici [6] = assay: Use Example G5: protective activity against Septoria leaf blotch of wheat (Septtr P1); type: in vivo; settings: alone, untreated control 83 % infection
Experimental: as §1, §2
(§3) Leaves of potted wheat seedlings were sprayed to runoff point with an aqueous suspension having the active compound concentration stated below. 24 hours after the spray coating had dried on, they were inoculated with an aqueous spore suspension of Septoria tritici. The test plants were then placed in a greenhouse at temperatures between 18 and 22° C. and a relative atmospheric humidity close to 100% for 4 days and then at temperatures between 18 and 22° C. and an atmospheric humidity of about 70%. After 21 days, the extent of the development of the disease was determined visually in % infection of the total leaf area.

Septoria tritici [7] = assay: Comparison No. C1: activity against Septoria leaf blotch pathogen in the microtiter test (Septtr); settings: relative growth, active compound-free control = 100%
Experimental: An aqueous malt-based spore suspension of Septoria tritici was then added. The plates were placed in a water vapor-saturated chamber at a temperature of 18° C. Using an absorption photometer, the MTPs were measured at 405 nm on day 7 after the innoculation.

Septoria tritici [8] = assay: Use Example G6: protective activity against Septoria leaf blotch of wheat (Septtr P1), % infection; type: in vivo; settings: 150 ppm, protective spray, after 21 days, untreated control 60% infected
Experimental: as §1, §3

Phakopsora pachyrhizi [9] = assay: Use Example G7: curative activity against soybean rust (Phakpa K3), % infection; type: in vivo; settings: 150 ppm, curative spray two days after inoculation, further 10 days, untreated control 80% infected
Experimental: as §1
Leaves of potted soybean seedlings were inoculated with a spore suspension of soybean rust (Phakpsora pachyrhizi). The pots were then placed in a chamber of high atmospheric humidity (90 to 95%) and 20 to 24° C. for 24 hours. During this time, the spores germinated and the germ tubes penetrated into the leaf tissue. The infected plants were then cultivated further in a greenhouse at temperatures between 23 and 27° C. and 60 to 80% relative atmospheric humidity. […] The extent of the rust fungus development on the leaves was then determined visually in % infection.

Pyrenophora teres = assay: Use Example M5: activity against Pyrenophora teres in the microtiter test (Pymte); type: cell-based; settings: alone
Phytophthora infestans [10] = type: in vivo; settings: alone, untreated control 86 % infection

Compound: CC(=O)Sc1ncnn1C[C@]1(c2ccc(F)cc2)O[C@H]1c1ccccc1Cl (relative stereo) [I-3, trans-S-{2-[3-(2-chlorophenyl)-2-(4-fluorophenyl)oxiranylmethyl]-2H-[1,2,4]triazol-3-yl}thioacetate]
- Observed effect (Phytophthora infestans [1]; 63 ppm): 43%
- Observed effect (Botrytis cinerea [2]; 16 ppm): 15%
- Observed effect (Pyricularia oryzae; 16 ppm): 8
- Observed effect (Pyricularia oryzae; 63 ppm): 62
- Observed effect (Septoria tritici [3]; 1 ppm): 3

Compound: COC(=O)N(OC)c1ccccc1COc1ccn(-c2ccc(Cl)cc2)n1 [pyraclostrobin]
- Observed effect (Phytophthora infestans [1]; 16 ppm): 16%
- Observed effect (Botrytis cinerea [4]): 1%

Compound: CNC(=O)/C(=N/OC)c1ccccc1CO/N=C(C)/C(=N/OC)C(/C)=N/OC [orysastrobin]
- Observed effect (Botrytis cinerea [2]; 0.016 ppm): 1%
- Observed effect (Botrytis cinerea [2]; 1 ppm): 2%
- Observed effect (Pyricularia oryzae; ternary table, 0.016 ppm): 2
- Observed effect (Septoria tritici [3]; ternary table, 0.004 ppm): 2

Compound: CO/N=C(/C(=O)OC)c1ccccc1COc1ccccc1C [kresoxim-methyl]
- Observed effect (Phakopsora pachyrhizi [5]; 1 ppm): 39%

Compound: O=C(Nc1ccccc1-c1ccc(Cl)cc1)c1cccnc1Cl [boscalid]
- Observed effect (Phytophthora infestans [1]; 4 ppm): 4%
- Observed effect (Phytophthora infestans [1]; 16 ppm): 20%
- Observed effect (Pyricularia oryzae; 16 ppm): 8
- Observed effect (Pyricularia oryzae; ternary table, 4 ppm): 0
- Observed effect (Septoria tritici [3]; ternary table, 0.063 ppm): 10
- Observed effect (Puccinia recondita; 0.063 ppm): 0%
- Observed effect (Septoria tritici [6]; 4 ppm): 10%

Compound: N#Cc1c(Cl)c(Cl)c(Cl)c(C#N)c1Cl [chlorothalonil]
- Observed effect (Pyricularia oryzae; ternary table, 0.063 ppm): 4
- Observed effect (Septoria tritici [3]; 0.063 ppm): 3
- Observed effect (Septoria tritici [3]; ternary table, 0.063 ppm): 3

Compound: Cc1cc(C)nc(Nc2ccccc2)n1 [pyrimethanil]
- Observed effect (Pyricularia oryzae; 4 ppm): 47

Compound: CCSc1ncnn1C[C@]1(c2ccc(F)cc2)O[C@H]1c1ccccc1Cl (relative stereo) [I-18, trans-1-[3-(2-chlorophenyl)-2-(4-fluorophenyl)oxiranylmethyl]-5-ethylsulfanyl-1H-[1,2,4]triazole]
- Growth in % at 8 ppm for Septtr (Septoria tritici [7]): 39%

Compound: N#CSc1ncnn1C[C@]1(c2ccc(F)cc2)O[C@H]1c1ccccc1Cl (relative stereo) [I-6, trans-1-[3-(2-chlorophenyl)-2-(4-fluorophenyl)oxiranylmethyl]-5-thiocyanato-1H-[1,2,4]triazole]
- infection (% infection of the total leaf area) (Septoria tritici [8]): 0%
- infection (rust fungus development on the leaves, % infection) (Phakopsora pachyrhizi [9]): 0%

Compound: Fc1ccc([C@]2(Cn3cncn3)O[C@H]2c2ccccc2Cl)cc1 (racemic) [epoxiconazole]
- Observed effect (Pyricularia oryzae; ternary table, 0.016 ppm): 0
- Observed effect (Septoria tritici [3]; 0.004 ppm): 6
- Observed effect (Septoria tritici [3]; 0.016 ppm): 22
- Observed effect (Pyrenophora teres; 0.004 ppm): 0%
- Observed effect (Pyrenophora teres; 0.016 ppm): 0%
- Observed effect (Phytophthora infestans [10]; 1 ppm): 1%
- Observed effect (Phakopsora pachyrhizi [5]; 0.063 ppm): 63%
- Observed effect (Puccinia recondita; 0.016 ppm): 0%
- Observed effect (Septoria tritici [6]; 1 ppm): 24%

Compound: CNC(=O)/C(=N/OC)c1ccccc1COc1cc(C)ccc1C [dimoxystrobin]
- Observed effect (Pyrenophora teres; 0.004 ppm): 4%

Compound: Fc1ccc([C@@]2(Cn3nc[nH]c3=S)O[C@H]2c2ccccc2Cl)cc1 (relative stereo) [I-1, trans-2-[3-(2-chlorophenyl)-2-(4-fluorophenyl)oxiranylmethyl]-2,4-dihydro-[1,2,4]triazole-3-thione]
- Observed effect (Pyricularia oryzae; 16 ppm): 3
- Observed effect (Pyrenophora teres; 0.004 ppm): 2%
- Observed effect (Pyrenophora teres; 0.016 ppm): 5%
- Observed effect (Phytophthora infestans [10]; 1 ppm): 0%
- Observed effect (Phakopsora pachyrhizi [5]; 0.063 ppm): 17%
- Observed effect (Puccinia recondita; 0.016 ppm): 0%
- Observed effect (Septoria tritici [6]; 1 ppm): 8%

Compound: CSc1ncnn1CC1(c2ccc(F)cc2)OC1c1ccccc1Cl (stereo not shown) [Prior art (WO 96/38440)]
- Growth in % at 8 ppm for Septtr (Septoria tritici [7]): 65%

Compound: COC(=O)NC(=S)Nc1ccccc1NC(=S)NC(=O)OC [thiophanate-methyl]
- Observed effect (Phytophthora infestans [10]; 63 ppm): 0%
- Observed effect (Phakopsora pachyrhizi [5]; 4 ppm): 8%

Compound: Fc1ccccc1[C@@]1(Cn2nc[nH]c2=S)O[C@H]1c1ccccc1Cl (relative stereo) [I-14, 2-[trans-3-(2-chlorophenyl)-2-(2-fluorophenyl)oxiranylmethyl]-2,4-dihydro-[1,2,4]triazole-3-thione]
- Observed effect (Phytophthora infestans [1]; 16 ppm): 26%
- Observed effect (Pyricularia oryzae; 16 ppm): 18
- Observed effect (Septoria tritici [3]; 1 ppm): 0

Compound: COC(=O)Nc1nc2ccccc2[nH]1 [carbendazim]
- Observed effect (Pyrenophora teres; 0.004 ppm): 0%

Compound: S=c1[nH]cnn1C[C@]1(c2ccccc2)O[C@H]1c1ccccc1Cl (relative stereo) [I-12, 2-[trans-3-(2-chlorophenyl)-2-phenyloxiranylmethyl]-2,4-dihydro-[1,2,4]triazole-3-thione]
- Observed effect (Pyricularia oryzae; 16 ppm): 7
- Observed effect (Pyricularia oryzae; 63 ppm): 16

Compound: [Na+].[S-]c1ncnn1C[C@]1(c2ccccc2Cl)O[C@H]1c1ccccc1Cl (relative stereo) [I-10, sodium 2-[trans-2,3-bis-(2-chlorophenyl)oxiranylmethyl]-2H-[1,2,4]triazole-3-thiolate]
- Observed effect (Phytophthora infestans [1]; 16 ppm): 30%
- Observed effect (Pyricularia oryzae; 16 ppm): 35

Compound: Fc1ccc([C@@]2(Cn3ncnc3S)O[C@H]2c2ccccc2F)cc1 (relative stereo) [I-8, trans-2-[2-(4-fluorophenyl)-3-(2-fluorophenyl)oxiranylmethyl]-2H-[1,2,4]triazole-3-thiole]
- Observed effect (Botrytis cinerea [2]; 63 ppm): 24%
